Patent US5399487A, “6-peptidylamino-1-naphthalenesulfonamides useful as fluorogenic proteolytic enzyme substrates” (Haematologic Technologies, Inc., priority 1993, dated 1995)

Tests used:
Assay in all cases: Fluorogenic enzyme assay (Example 5)
Type in all cases: biochemical
[1] = target: activated protein C (APC) (Homo sapiens, UniProt P04070); parameters: key to Hydrolysis kinetic constants, APC (symbol b): Slow substrate hydrolysis, no kinetic constants calculated; conditions: for Hydrolysis kinetic constants, APC (symbol b) / Km / kcat /Km, APC / kcat, APC: Table 7; for Time (min) for 10% hydrolysis, APC: enzyme 100 nM, substrate 1 μM
Sequence of activated protein C (APC) (P04070 212-461 limits assumed): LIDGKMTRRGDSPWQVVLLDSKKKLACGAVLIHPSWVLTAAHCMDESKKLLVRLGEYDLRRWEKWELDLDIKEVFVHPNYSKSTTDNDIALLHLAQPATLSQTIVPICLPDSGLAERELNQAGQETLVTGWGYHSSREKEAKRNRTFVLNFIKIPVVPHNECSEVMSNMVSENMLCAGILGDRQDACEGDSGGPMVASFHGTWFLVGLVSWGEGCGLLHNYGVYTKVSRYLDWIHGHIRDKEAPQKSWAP
Sequence of activated protein C (APC) (P04070 43-197 limits assumed): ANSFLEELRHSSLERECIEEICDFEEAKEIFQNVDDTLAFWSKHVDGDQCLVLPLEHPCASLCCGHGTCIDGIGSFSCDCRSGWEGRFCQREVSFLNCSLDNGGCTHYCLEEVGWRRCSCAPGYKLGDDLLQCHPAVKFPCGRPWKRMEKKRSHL
Protocol: (§1) Enzyme assays (except factor VIIa assays, see below) were conducted in 20 mM Tris, 150 mM NaCl, pH 7.4 (TBS) at room temperature (22° C.). The final volume for all reaction mixtures was 2.0 ml. Fluorogenic substrates were dissolved in DMSO to a stock concentration of 10 mM. The 10 mM stock solution was diluted in TBS to the final working concentration prior to all assays. Enzyme was added to mixtures containing buffer components and substrate and the initial rate of substrate hydrolysis was measured as the change in fluorescent intensity over time, corresponding to the generation of the particular 6-amino-1-naphthalenesulfonamide fluorophore from the provided substrate. Quantitation of substrate hydrolysis was accomplished by establishing a standard curve from the appropriate fluorescent moiety. Fluorescence was monitored (continuously or discontinuously) using a Perkin Elmer fluorescence spectrophotometer, model MPF-44A, equipped with a standard chart recorder. The fluorophore was detected using monochrometers set at an excitation wavelength of 352 nm and an emission wavelength of 470 nm. Light scattering artifacts were minimized using a 399 nm cut off filter in the emission light beam.
(§2) The kinetic constants of substrate hydrolysis were determined using the non-linear least squares regression analysis program ENZFITTER (Cambridge, UK). This program was used to iteratively fit initial rates of substrate hydrolysis to the Michaelis-Menten equation and the kinetic constants of substrate hydrolysis (Km) and (kcat) were calculated.

[2] = target: urokinase (u-PA) (Homo sapiens, UniProt P00749); conditions: enzyme 100 nM, substrate 1 μM
Protocol: as §1, §2

[3] = target: plasmin (Plm) (Homo sapiens, UniProt P00747); conditions: enzyme 100 nM, substrate 1 μM; for Time (min) for 5% hydrolysis, Plm: footnote b
Sequence of plasmin (Plm) (P00747 581-810 limits assumed, species assumed): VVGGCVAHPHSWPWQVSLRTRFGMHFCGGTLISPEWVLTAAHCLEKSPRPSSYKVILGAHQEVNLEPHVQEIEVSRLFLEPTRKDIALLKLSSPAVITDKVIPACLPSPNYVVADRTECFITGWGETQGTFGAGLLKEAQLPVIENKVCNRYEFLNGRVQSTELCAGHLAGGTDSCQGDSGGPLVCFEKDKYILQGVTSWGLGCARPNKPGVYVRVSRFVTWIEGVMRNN
Sequence of plasmin (Plm) (P00747 97-580 limits assumed, species assumed): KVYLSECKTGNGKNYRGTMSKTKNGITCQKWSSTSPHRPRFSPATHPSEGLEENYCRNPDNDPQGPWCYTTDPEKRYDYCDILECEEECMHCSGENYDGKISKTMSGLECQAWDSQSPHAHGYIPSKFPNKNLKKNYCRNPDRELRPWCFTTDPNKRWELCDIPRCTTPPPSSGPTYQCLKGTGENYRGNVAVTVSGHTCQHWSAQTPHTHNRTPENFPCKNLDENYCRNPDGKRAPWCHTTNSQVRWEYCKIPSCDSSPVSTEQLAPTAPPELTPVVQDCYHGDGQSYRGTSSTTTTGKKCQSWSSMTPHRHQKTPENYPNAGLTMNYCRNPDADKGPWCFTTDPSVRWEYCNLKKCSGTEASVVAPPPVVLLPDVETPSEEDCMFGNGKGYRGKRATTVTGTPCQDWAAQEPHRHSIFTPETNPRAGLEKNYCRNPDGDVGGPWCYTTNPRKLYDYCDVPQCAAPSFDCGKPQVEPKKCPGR
Protocol: as §1, §2

[4] = target: tissue plasminogen activator (t-PA) (Homo sapiens, UniProt P00750); conditions: enzyme 100 nM, substrate 1 μM; for hydrolysis, t-PA (symbol N.D.): after 24 hrs
Sequence of tissue plasminogen activator (t-PA) (P00750 36-562, species assumed): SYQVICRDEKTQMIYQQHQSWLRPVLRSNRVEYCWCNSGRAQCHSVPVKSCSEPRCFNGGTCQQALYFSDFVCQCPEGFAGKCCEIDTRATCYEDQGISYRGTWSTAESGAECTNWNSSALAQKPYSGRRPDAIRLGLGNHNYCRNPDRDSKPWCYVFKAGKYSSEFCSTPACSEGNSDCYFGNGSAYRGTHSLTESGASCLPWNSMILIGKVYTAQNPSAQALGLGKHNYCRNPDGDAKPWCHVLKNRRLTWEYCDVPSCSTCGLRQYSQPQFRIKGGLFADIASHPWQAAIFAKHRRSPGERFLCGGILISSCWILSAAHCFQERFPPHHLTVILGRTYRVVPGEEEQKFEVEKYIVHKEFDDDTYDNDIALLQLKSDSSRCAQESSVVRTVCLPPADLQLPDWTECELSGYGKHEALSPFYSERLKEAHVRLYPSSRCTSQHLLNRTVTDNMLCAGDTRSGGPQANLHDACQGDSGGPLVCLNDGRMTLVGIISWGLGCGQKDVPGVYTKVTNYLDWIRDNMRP
Protocol: as §1, §2

[5] = target: factor Xa (Homo sapiens, UniProt P00742); conditions: for Km / kcat /Km, Xa / kcat, Xa: Table 7; for Time (min) for 10% hydrolysis, Xa: enzyme 100 nM, substrate 1 μM
Sequence of factor Xa (P00742 235-488 limits assumed): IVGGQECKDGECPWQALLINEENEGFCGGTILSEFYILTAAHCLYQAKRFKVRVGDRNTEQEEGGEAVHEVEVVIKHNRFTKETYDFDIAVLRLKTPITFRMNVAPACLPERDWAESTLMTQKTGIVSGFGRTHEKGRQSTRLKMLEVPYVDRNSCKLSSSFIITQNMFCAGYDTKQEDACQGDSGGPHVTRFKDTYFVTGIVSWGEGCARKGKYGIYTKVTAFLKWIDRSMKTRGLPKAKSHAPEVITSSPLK
Sequence of factor Xa (P00742 41-179 limits assumed): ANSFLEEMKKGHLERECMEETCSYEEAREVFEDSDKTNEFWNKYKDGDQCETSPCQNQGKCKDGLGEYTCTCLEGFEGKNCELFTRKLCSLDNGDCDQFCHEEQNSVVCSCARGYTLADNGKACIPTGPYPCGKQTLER
Protocol: as §1, §2

[6] = target: T1, thrombin (IIa) (Homo sapiens, UniProt P00734); parameters: key to Hydrolysis kinetic constants, IIa (symbol b): Slow substrate hydrolysis, no kinetic constants calculated; conditions: for Time (min) for 10% hydrolysis, IIa: enzyme 100 nM, substrate 1 μM
T1 construct: 0.5 nM human thrombin (IIa)
Protocol: as §1, §2

SMILES | Time (min) for 10% hydrolysis, APC [1] [min] | Time (min) for 10% hydrolysis, u-PA [2] [min] | Time (min) for 5% hydrolysis, Plm [3] [min] | Km [5] [µM] | kcat /Km, Xa [5] [s⁻¹ M⁻¹] | kcat, Xa [5] [s⁻¹] | Time (min) for 10% hydrolysis, Xa [5] [min] | Km ([6]; Table 7) [µM] | kcat /Km, IIa ([6]; Table 7) [s⁻¹ M⁻¹] | kcat, IIa ([6]; Table 7) [s⁻¹] | Time (min) for 10% hydrolysis, IIa [6] [min] | Km [1] [µM] | kcat /Km, APC [1] [s⁻¹ M⁻¹] | kcat, APC [1] [s⁻¹] | hydrolysis, t-PA (symbol N.D.) [4] | other results
Br.CNS(=O)(=O)c1cccc2cc(NC(=O)[C@H](CCCNC(=N)N)NC(=O)OCc3ccccc3)ccc12 [(N^α -Z)ArgANSNR1 R2; H; CH3] | 120 | 660 | 1620 | 160 | 714 | 0.11 | 25 | 62.5 | 640 | 0.04 | 38 |  |  |  |  | Hydrolysis kinetic constants, APC (symbol b) [1]: b; Time (min) for 5% hydrolysis, t-PA ([4]; footnote b): 1280 min
Br.N=C(N)NCCC[C@H](NC(=O)OCc1ccccc1)C(=O)Nc1ccc2c(S(=O)(=O)NCc3ccccc3)cccc2c1 [(N^α -Z)ArgANSNR1 R2; H; benzyl] | 12 | 19 |  | 213 | 198 | 0.04 | 46 | 41 | 1680 | 0.07 | 17 | 218 | 1050 | 0.23 |  | Time (min) for 10% hydrolysis, Plm [3]: 330 min; Time (min) for 10% hydrolysis, t-PA [4]: 510 min
Br.N=C(N)NCCC[C@H](NC(=O)OCc1ccccc1)C(=O)Nc1ccc2c(S(=O)(=O)NC3CCCCC3)cccc2c1 [(N^α -Z)ArgANSNR1 R2; H; cyclo-C6 H11] | 12 |  |  | 51.8 | 633 | 0.03 | 55 | 27.9 | 1090 | 0.03 | 23 | 810 | 2470 | 0.44 | N.D. (Less than 5% hydrolysis after 24 hrs.) | Time (min) for 5% hydrolysis, u-PA ([2]; footnote b): 1620 min; Time (min) for 10% hydrolysis, Plm [3]: 1140 min
Br.CC(C)NS(=O)(=O)c1cccc2cc(NC(=O)[C@H](CCCNC(=N)N)NC(=O)OCc3ccccc3)ccc12 [(N^α -Z)ArgANSNR1 R2; H; i-C3 H7] | 50 | 1260 | 1370 | 102 | 800 | 0.08 | 36 | 25 | 1180 | 0.03 | 34 | 343 | 510 | 0.17 | N.D. (Less than 5% hydrolysis after 24 hrs.) | 
Br.CC(C)CNS(=O)(=O)c1cccc2cc(NC(=O)[C@H](CCCNC(=N)N)NC(=O)OCc3ccccc3)ccc12 [(N^α -Z)ArgANSNR1 R2; H; i-C4 H9] | 17 | 200 | 1620 | 86.5 | 811 | 0.07 | 33 | 35.3 | 1420 | 0.05 | 25 | 960 | 1670 | 1.6 | N.D. (Less than 5% hydrolysis after 24 hrs.) | 
Br.CC(C)(C)NS(=O)(=O)c1cccc2cc(NC(=O)[C@H](CCCNC(=N)N)NC(=O)OCc3ccccc3)ccc12 [(N^α -Z)ArgANSNR1 R2; H; t-C4 H9] | 45 | 1260 | 910 | 114 | 487 | 0.06 | 45 | 24 | 930 | 0.02 | 34 | 738 | 540 | 0.4 | N.D. (Less than 5% hydrolysis after 24 hrs.) | 
Br.N=C(N)NCCC[C@H](NC(=O)OCc1ccccc1)C(=O)Nc1ccc2c(S(=O)(=O)N3CCOCC3)cccc2c1 [(N^α -Z)ArgANSNR1 R2; morpholyl] | 171 |  | 1220 | 80 | 625 | 0.05 | 45 |  |  |  | 76 |  |  |  | N.D. (Less than 5% hydrolysis after 24 hrs.) | Hydrolysis kinetic constants, APC (symbol b) [1]: b; hydrolysis, u-PA (symbol N.D.) ([2]; after 24 hrs): N.D. (Less than 5% hydrolysis after 24 hrs.); Hydrolysis kinetic constants, IIa (symbol b) ([6]; Table 7): b
